Measured values as given in patent US10815226B2, “Heteroaryl compounds as inhibitors of necrosis, composition and application thereof” (ACCRO BIOSCIENCE INC., priority 2016, dated 2020).

Tests used:
L929 cells = assay: L929 cell necroptosis assay (same protocol as the HT29 cell assay); type: cell-based, mouse; details: for IC50: Mus musculus; for L929 Inhibition (10 μM): 10 μM test compound, protocol as HT29 assay
Method: The efficacies of RIP1 inhibitors were tested in vitro using human colon cancer TH29 cells in a necroptosis assay. […] Then the cells were treated with TNF-α (40 ng/mL), Smacmimetic (100 nM) and z-VAD (20 μM) for 48 hours, and the viability was quantified. DMSO pretreatment group was negative control, Nec-1 pretreatment group was positive control.
Biological In Vitro L929 Cell Assay.
Mouse L-cells NCTC 929 (L929) were acquired from ATCC (cat. no. ATCC CCL-1) and banked in liquid nitrogen. The assay protocol was the same as described for the HT29 cell assay.

HT29 cells [1] = assay: HT29 cell necroptosis assay (TNF-α/Smac mimetic/z-VAD induced necrosis, viability); type: cell-based, human; details: Homo sapiens, HT-29, HT29 cells, TNF-α/Smacmimetic/z-VAD induced necrosis
HT29 cells [2] = assay: as above; type: cell-based, human; details: 10 μM test compound pretreated one hour, TNF-α (40 ng/mL), Smacmimetic (100 nM), z-VAD (20 μM) for 48 hours
Method: Biological in Vitro HT29 Cell Assay.
The efficacies of RIP1 inhibitors were tested in vitro using human colon cancer TH29 cells in a necroptosis assay. For the assay, Cells were added to 96-well plates and then 10 μM of the test compound was pretreated for one hour. Then the cells were treated with TNF-α (40 ng/mL), Smacmimetic (100 nM) and z-VAD (20 μM) for 48 hours, and the viability was quantified. DMSO pretreatment group was negative control, Nec-1 pretreatment group was positive control.

Work on CCc1ncc(-c2ccc3nc(NC(C)=O)sc3c2)cc1NC(=O)OC1CCCCC1 [Compound A54] yielded an IC50 (L929 cells; values in nM) of 200 nM and an IC50 (HT29 cells [1]; values in nM) of 75 nM.

Cc1ncc(-c2ccc3nc(NC(=O)C4CC4)sc3c2)cc1NC(=O)OC1CCCCC1 [Compound A61] gave an IC50 (L929 cells; values in nM) of 3 nM and an IC50 (HT29 cells [1]; values in nM) of 1.2 nM.

For CC(=O)Nc1nc2ccc(-c3cncc(NC(=O)Cc4ccccc4Cl)c3)cc2s1 [Compound A13], the “HT29 Inhibition (10 μM)” value (HT29 cells [2]) was 80%, the “L929 Inhibition (10 μM)” value (L929 cells) was 94% and the IC50 (HT29 cells [1]; values given in μM) was 5240 nM.

In the case of CC(=O)Nc1nc2ccc(-c3cncc(NC(=O)Cc4ccccc4)c3)cc2s1 [Compound A12], the “HT29 Inhibition (10 μM)” value (HT29 cells [2]) was 11%, the “L929 Inhibition (10 μM)” value (L929 cells) was 80% and the IC50 (HT29 cells [1]; values given in μM) was 2560 nM.

CC(=O)Nc1nc2ccc(-c3cnc(Cl)c(NC(=O)Cc4ccccc4Cl)c3)cc2s1 [Compound A24] was tested, and the “HT29 Inhibition (10 μM)” value (HT29 cells [2]) was 113%, the “L929 Inhibition (10 μM)” value (L929 cells) was 42% and the IC50 (HT29 cells [1]; values in nM) was 527 nM.

With CC(=O)Nc1nc2ccc(-c3cnc(Cl)c(NC(=O)Cc4ccccc4)c3)cc2s1 [Compound A21] the “HT29 Inhibition (10 μM)” value (HT29 cells [2]) was 28%, the “L929 Inhibition (10 μM)” value (L929 cells) was 42% and the IC50 (HT29 cells [1]; values given in μM) was 16500 nM.

CC(=O)Nc1nc2ccc(-c3cnc(C)c(NC(=O)CC(C)(C)C)c3)cc2s1 [Compound A45] gave an IC50 (L929 cells; values given in μM) of 1010 nM and an IC50 (HT29 cells [1]; values in nM) of 430 nM.

In the case of CC(=O)Nc1nc2ccc(-c3cnc(C)c(NC(=O)OC4CCCCC4)c3)cc2s1 [Compound A36, Cyclohexyl (5-(2-acetamidobenzo[d]thiazol-6-yl)-2-methylpyridin-3-yl)carbamate], the IC50 (L929 cells; values in nM) was 5 nM and the IC50 (HT29 cells [1]; values in nM) was 30 nM.

CC(=O)Nc1nc2ccc(-c3ccc(C)c(NC(=O)OC4CCCCC4)n3)cc2s1 [Compound A56, Cyclohexyl (6-(2-acetamidobenzo[d]thiazol-6-yl)-3-methylpyridin-2-yl) Carbamate] showed an IC50 (L929 cells; values in nM) of 500 nM and an IC50 (HT29 cells [1]; values in nM) of 700 nM.

With CC(=O)Nc1nc2ccc(-c3cnc(C)c(NC(=O)OC4CCCCC4)c3)nc2s1 [Compound A57] the IC50 (L929 cells; values in nM) was 30 nM and the IC50 (HT29 cells [1]; values in nM) was 92 nM.

For CC(=O)Nc1nc2ccc(-c3cnc(C)c(NC(=O)Cc4ccccc4)c3)cc2s1 [Compound A23], the “HT29 Inhibition (10 μM)” value (HT29 cells [2]) was 104%, the “L929 Inhibition (10 μM)” value (L929 cells) was 42% and the IC50 (HT29 cells [1]; values in nM) was 670 nM.

For CC(=O)Nc1cn2cc(-c3cnc(C)c(NC(=O)CC4CCCCC4)c3)ccc2n1 [Compound A46], the IC50 (L929 cells; values given in μM) was 2480 nM and the IC50 (HT29 cells [1]; values in nM) was 900 nM.

CC(=O)Nc1nc2cc(-c3cnc(C)c(NC(=O)OC4CCCCC4)c3)ccn2n1 [Compound A58] gave an IC50 (L929 cells; values given in μM) of 1000 nM and an IC50 (HT29 cells [1]; values given in μM) of 1000 nM.
